Some test systems named below: MDA-N; A549; OVCAR-8; NCI-H522; U-251; HCT-15; Malme-3M; RPMI-8226; KM12; TK-10; HOP-62; CAKI-1; OVCAR-5; HCT-116; SF-268; UACC-62; MCF7; SK-OV-3; T47D.
What all share (test): growth of human tumour cells (NCI), 48 h

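Protocol summary: plate cells (96-well), add compound at 5 concentrations, incubate 48 h, interpolate endpoints linearly. GI50 marks 50% less growth.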 Activity calls are given as the source filed them. Cut-off read from the data, not from the text of the source: active = GI50 up to about 1.1 µM and inactive = higher. Where only a bound is given, the exact number is not on record here.

Take `Cc1ccc(CCCC(=O)O)cc1C`: the GI50 is > 100 µM (inactive) in the assay with MDA-N; > 100 µM (inactive) in the assay with A549; > 100 µM (inactive) in the assay on OVCAR-8; > 100 µM (inactive) in the assay with NCI-H522; > 100 µM (inactive) in the assay with U-251; greater than 100 µM with HCT-15. Moreover, the GI50 in the assay with Malme-3M, in the assay with RPMI-8226, in the assay on KM12, with TK-10, with HOP-62 and with CAKI-1 was > 100 µM (inactive) in each case. In addition, the GI50 was > 100 µM (inactive) in the assay on OVCAR-5, > 100 µM (inactive) in the assay with HCT-116, 63.7 µM (inactive) in the assay with SF-268 and > 100 µM (inactive) in the assay on UACC-62.
Regarding `O=C1CSc2ccnc(=O)n21`, the GI50 with MDA-N, in the assay on A549, in the assay on OVCAR-8, in the assay on NCI-H522, with U-251 and in the assay on Malme-3M was > 100 µM (inactive) throughout. The GI50 in the assay on RPMI-8226, in the assay on MCF7, in the assay on TK-10, in the assay with HOP-62, in the assay on CAKI-1 and in the assay with OVCAR-5 was > 100 µM (inactive) throughout. For the same molecule, the GI50 in the assay on SK-OV-3, in the assay on HCT-116, in the assay with SF-268 and with UACC-62 was > 100 µM (inactive) in each case.
Take `CCC(=O)C(C)C1=Nc2nnc(CCCCCCCc3nnc4n3C(=O)C(C(C)C(=O)CC)=N4)n2C1=O` (stereo not drawn): the GI50 in the assay on A549 was > 100 µM (inactive); in the assay with OVCAR-8, > 100 µM (inactive); with NCI-H522 it was > 100 µM (inactive); in the assay on U-251, > 100 µM (inactive); in the assay with HCT-15 it was greater than 100 µM; with Malme-3M it was > 100 µM (inactive). The GI50 in the assay with RPMI-8226, in the assay with KM12, with TK-10, in the assay with HOP-62, with CAKI-1 and in the assay on OVCAR-5 was > 100 µM (inactive) each time. Further, the GI50 with SK-OV-3, with HCT-116, in the assay on SF-268 and in the assay with UACC-62 was > 100 µM (inactive) in each case.
Turning to `CC(/C=N\NC(=S)N1CCCCC1)=N/NC(=S)N1CCCCC1`, the GI50 with MDA-N is 2.89 µM (inactive); in the assay on A549, 0.692 µM (active); with OVCAR-8, 0.551 µM (active); with NCI-H522, 1.54 µM (inactive); in the assay on U-251 it was 0.815 µM (active); in the assay on HCT-15, 0.42 µM. Besides, the GI50 in the assay on Malme-3M is 2.15 µM (inactive); in the assay on RPMI-8226, 2.32 µM (inactive); in the assay with KM12, 1.09 µM (active); in the assay on MCF7, 1.48 µM (inactive); with TK-10, 2.06 µM (inactive); with HOP-62 it was 0.991 µM (active). Also, the GI50 in the assay with CAKI-1 was 1.33 µM (inactive); in the assay on OVCAR-5, 2.69 µM (inactive); with SK-OV-3 it was 1.04 µM (active); with HCT-116 it was 0.627 µM (active); with SF-268 it was 1.05 µM (active); in the assay with UACC-62, 0.671 µM (active).
Take `COc1ccc2c(c1)CC[C@@H]1[C@@H]2CC[C@]2(C)C(=O)/C(=C/c3ccc(OC)c(OC)c3)C[C@@H]12`: the GI50 in the assay with A549 was > 100 µM (inactive); in the assay on U-251, > 100 µM (inactive); in the assay with HCT-15, greater than 100 µM; in the assay with Malme-3M, > 100 µM (inactive); with RPMI-8226, 56.2 µM (inactive); in the assay with KM12, > 100 µM (inactive). In addition, the GI50 with MCF7, with TK-10, with HOP-62, with CAKI-1, in the assay on OVCAR-5 and in the assay with SK-OV-3 was > 100 µM (inactive) each time. Besides, the GI50 was 65.9 µM (inactive) in the assay with HCT-116 and > 100 µM (inactive) with UACC-62.
Consider `CCCCNc1nc(N)nc(Nc2ccc(Br)cc2)c1N=O`, for which the GI50 is > 100 µM (inactive) with MDA-N; 33.7 µM (inactive) in the assay on A549; 70.5 µM (inactive) with OVCAR-8; 36.4 µM (inactive) with NCI-H522; 31.1 µM (inactive) with U-251; 78 µM in the assay with HCT-15. For the same molecule, the GI50 in the assay with Malme-3M was > 100 µM (inactive); in the assay with RPMI-8226, 52 µM (inactive); in the assay on KM12 it was > 100 µM (inactive); in the assay with MCF7 it was 74.6 µM (inactive); in the assay on TK-10 it was > 100 µM (inactive); with HOP-62 it was 37.2 µM (inactive). The GI50 in the assay on OVCAR-5 is 77.4 µM (inactive); in the assay with HCT-116, 84.9 µM (inactive); in the assay with SF-268 it was > 100 µM (inactive); in the assay on UACC-62 it was 62.7 µM (inactive).
In the case of `Cn1/c(=N\c2ccc(Cl)cc2)sc2ccccc21`, the GI50 with A549 was 32.5 µM (inactive); with OVCAR-8, 38.5 µM (inactive); in the assay with NCI-H522 it was 4.98 µM (inactive); in the assay with U-251, 52.5 µM (inactive); in the assay with HCT-15, 8.15 µM; with Malme-3M, 57.7 µM (inactive). Moreover, the GI50 in the assay on RPMI-8226 was 92.3 µM (inactive); with KM12 it was 21.9 µM (inactive); in the assay on TK-10, 43 µM (inactive); with HOP-62 it was 71.3 µM (inactive); in the assay with CAKI-1, 34 µM (inactive); in the assay with OVCAR-5, 34.8 µM (inactive). The GI50 with T47D was 15 µM (inactive); with SK-OV-3, > 100 µM (inactive); in the assay with HCT-116, 37 µM (inactive); with SF-268 it was > 100 µM (inactive); in the assay on UACC-62, 40.6 µM (inactive).
Regarding `C/C(=N/NC(=S)Nc1cccc(Cl)c1)c1ccccn1`, the GI50 is 0.776 µM (active) in the assay on MDA-N; 0.802 µM (active) with A549; 0.0834 µM (active) with OVCAR-8; 0.06 µM (active) in the assay with NCI-H522; 0.0885 µM (active) with U-251; 0.0588 µM in the assay with HCT-15. The GI50 in the assay on Malme-3M was 0.301 µM (active); with RPMI-8226, 0.029 µM (active); with KM12 it was 0.413 µM (active); in the assay with MCF7 it was 0.0151 µM (active); in the assay on TK-10 it was 0.322 µM (active); with HOP-62, 0.453 µM (active). The GI50 in the assay with CAKI-1 is 0.348 µM (active); with OVCAR-5, 0.0474 µM (active); in the assay with SK-OV-3 it was 0.265 µM (active); with HCT-116 it was < 0.0161 µM (active); in the assay on SF-268 it was 0.142 µM (active); in the assay with UACC-62, 0.202 µM (active).
On to `Cc1cccc(Nc2cn(CCOc3ccccc3)c(=O)n(CCOc3ccccc3)c2=O)c1`, for which the GI50 with MDA-N is > 100 µM (inactive); in the assay with A549, > 100 µM (inactive); in the assay on U-251 it was > 100 µM (inactive); in the assay with HCT-15 it was greater than 100 µM; with RPMI-8226, 67.5 µM (inactive); in the assay on KM12, > 100 µM (inactive). Also, the GI50 in the assay on MCF7, in the assay on HOP-62, with CAKI-1, in the assay with OVCAR-5, in the assay with HCT-116 and in the assay on SF-268 was > 100 µM (inactive) in each case. Also, the GI50 in the assay on UACC-62 was > 100 µM (inactive).
Consider `CC(C)=CCC/C(C)=C/COC(C)(C)C1=CCC(C)CC1.CC(C)=CCC/C(C)=C/COC1CC(C)CCC1=C(C)C` (stereo not drawn), for which the GI50 with MDA-N is > 100 µM (inactive); in the assay on A549, > 100 µM (inactive); in the assay with OVCAR-8 it was > 100 µM (inactive); with NCI-H522, > 100 µM (inactive); in the assay with U-251, > 100 µM (inactive); in the assay with HCT-15, greater than 100 µM. In addition, the GI50 in the assay with Malme-3M is > 100 µM (inactive); in the assay with RPMI-8226, 36.7 µM (inactive); in the assay on KM12, > 100 µM (inactive); in the assay on MCF7, 65.3 µM (inactive); in the assay with TK-10, > 100 µM (inactive); with HOP-62, > 100 µM (inactive). In addition, the GI50 in the assay with CAKI-1, in the assay with OVCAR-5, with SK-OV-3, in the assay with HCT-116, in the assay on SF-268 and in the assay with UACC-62 was > 100 µM (inactive) throughout.
Take `C[C@H](NS(=O)(=O)c1ccc(NC(=O)c2ccccc2)cc1)C(=O)O`: the GI50 was > 100 µM (inactive) with A549; > 100 µM (inactive) in the assay with OVCAR-8; > 100 µM (inactive) in the assay on NCI-H522; > 100 µM (inactive) in the assay with U-251; greater than 100 µM with HCT-15; > 100 µM (inactive) with Malme-3M. Further, the GI50 in the assay with RPMI-8226, with KM12, in the assay on TK-10, with CAKI-1, with OVCAR-5 and in the assay with SK-OV-3 was > 100 µM (inactive) throughout. The GI50 in the assay on SF-268 and in the assay with UACC-62 was > 100 µM (inactive) in each case.
As to `COc1nc2c(c(=O)[nH]1)N=C(c1ccccc1)CC(c1ccccc1)N2` (stereo not drawn), the GI50 is 55.6 µM (inactive) with A549; 28.1 µM (inactive) in the assay on OVCAR-8; 35.1 µM (inactive) in the assay with NCI-H522; 44.9 µM (inactive) with U-251; 72.9 µM (inactive) with Malme-3M; 27.2 µM (inactive) in the assay with RPMI-8226. Moreover, the GI50 was 30.7 µM (inactive) in the assay on KM12; 42.2 µM (inactive) in the assay on MCF7; 95.1 µM (inactive) with HOP-62; 91 µM (inactive) in the assay on CAKI-1; > 100 µM (inactive) in the assay on OVCAR-5; 58.5 µM (inactive) in the assay on SK-OV-3. Moreover, the GI50 is 33.8 µM (inactive) in the assay with HCT-116 and 44.7 µM (inactive) in the assay on UACC-62.
As for `Cc1ccc(S(=O)(=O)n2cnc(CC(NC(=O)C3CCC(=O)N3C(=O)OCc3ccccc3)C(=O)N3CCCC3C(=O)NN)c2)cc1` (stereo not drawn), the GI50 is > 100 µM (inactive) with MDA-N; > 100 µM (inactive) in the assay with A549; > 100 µM (inactive) with OVCAR-8; > 100 µM (inactive) in the assay with U-251; greater than 100 µM with HCT-15; > 100 µM (inactive) with Malme-3M. The GI50 with RPMI-8226, with KM12, in the assay with MCF7, with TK-10, in the assay on HOP-62 and with OVCAR-5 was > 100 µM (inactive) in each case. Further, the GI50 in the assay on HCT-116 was > 100 µM (inactive).

The values are drawn from ChEMBL document CHEMBL1201862, “PubChem BioAssay data set” (2004).
